Data as given in paper PMC4920374 (Bioorganic & medicinal chemistry, 2016).
Where two headings read alike, the source gives them in different places. Blank lines part the entries; values can stand above or below the molecule they belong to.

Legend:
[1] = tested on: KB (epidermoid carcinoma of the nasopharynx); experiment: Antiproliferative SRB assay, KB; type: cell-based, human
[2] = tested on: KB-vin (vincristine-resistant KB subline); experiment: Antiproliferative SRB assay, KB-vin; type: cell-based, human
Mer TK = settings: cited from earlier work
[3] = tested on: A549 (human lung carcinoma); experiment: Antiproliferative SRB assay, A549; type: cell-based; settings: A549, read-out: GI50 A549
DU145 (prostate cancer) = experiment: Antiproliferative SRB assay, DU145; type: cell-based; settings: Homo sapiens, DU-145, read-out: GI50 DU145
[4] = paclitaxel reference, values in nM

- GI50 KB ([1]; SRB): >31300 nM
- GI50 KB-vin ([2]; SRB): >31300 nM
SMILES: N#Cc1ccc(Nc2nc(NC3CCCC3)c3ccccc3n2)cc1 [6a, 2-(4-Cyanophenyl)amino-4-(N-cyclopentyl)aminoquinazoline]

- GI50 KB ([1]; SRB): 19700 nM
- GI50 KB-vin ([2]; SRB): 18700 nM
SMILES: Nc1ccc(Nc2nc(NCCCO)c3ccccc3n2)cc1 [7b]

- GI50 KB ([1]; SRB): 17100 nM
- GI50 KB-vin ([2]; SRB): 24200 nM
SMILES: OCCCNc1nc(Nc2ccc(F)cc2)nc2ccccc12 [7c, 2-(4-Fluorophenyl)amino-4-(3-hydroxypropyl)aminoquinazoline]

SMILES: CC(C)n1cnc2/c(=N/c3cccc(Cl)c3)nc(NCCO)[nH]c21 [C-52]
- Mer inhibitory potency (Mer TK; literature Mer inhibitors): weak

- GI50 KB [1, 4]: 2.6 nM
- GI50 KB-vin [2, 4]: 948 nM
- GI50 [3]: 0.0049 µM
- GI50 (DU145 (prostate cancer)): 0.0026 µM
SMILES: CC(=O)O[C@H]1C(=O)[C@@]2(C)[C@H]([C@H](OC(=O)c3ccccc3)[C@]3(O)C[C@H](OC(=O)[C@H](O)[C@@H](NC(=O)c4ccccc4)c4ccccc4)C(C)=C1C3(C)C)[C@]1(OC(C)=O)CO[C@@H]1C[C@@H]2O [Paclitaxel]

SMILES: CCCCNc1ncc2c(-c3ccc(F)cc3)nn(CC3CCC(N)CC3)c2n1 (stereo not shown) [UNC569]
- Mer inhibitory potency (Mer TK): subnanomolar

SMILES: CCCCNc1ncc(C(=O)NCc2ccc(-n3ccnc3)cc2)c(NC2CCC(O)CC2)n1 (stereo not shown) [UNC2881]
- Mer inhibitory potency (Mer TK): subnanomolar
